Here are results for two compounds from publication PMC9389462, “Small molecule MMRi62 targets MDM4 for degradation and induces leukemic cell apoptosis regardless of p53 status” (Frontiers in Oncology, 2022).

pKd: −log10 of the molar value.

For the test, the target named is T1, MDM4 (Homo sapiens, UniProt O15151+Q00987).
T1 construct: RING domain (MDM2-MDM4 RING heterodimer, pETDuet, E. coli); with MDM2 (RING domain)
Briefly: microscale thermophoresis on preformed, dye-labelled MDM2-MDM4 RING heterodimer. Type of test: binding. A general note: MST reads how a fluorescent partner responds to local heating, with and without ligand.

One may read the pKd as the negative decadic logarithm of the Kd, by convention in mol/L.

T1 sequence (O15151 416-490 limits assumed): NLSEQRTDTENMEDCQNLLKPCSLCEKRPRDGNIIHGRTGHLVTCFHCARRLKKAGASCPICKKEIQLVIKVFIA
T1 sequence (Q00987 430-491 limits assumed): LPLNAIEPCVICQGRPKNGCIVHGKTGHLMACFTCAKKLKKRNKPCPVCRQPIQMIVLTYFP

The compound `Oc1c(C(Nc2ccccn2)c2cccc(Cl)c2Cl)ccc2cccnc12` (racemic) [MMRi62] gave a pKd of roughly 6.85.
The compound `O=C(O)c1ccc(C(Nc2ccccn2)c2cc(Cl)c3cccnc3c2O)cc1` (racemic) [MMRi67] showed a pKd of roughly 6.05.
